These results are taken from patent US11311513B2, “Methods, agents, and compositions for the treatment of acute myeloid leukemia” (UNIVERSITY OF CINCINNATI, priority 2017, dated 2022).

For data set [1], the target named is STAT3 and the TET1 CpG island (Homo sapiens, UniProt P40763). In words: Electrophoretic mobility shift assay (EMSA). The data set is classed as biochemical. The method, then:
EMSA was conducted with EMSA Assay Kit (Signosis, Santa Clara, Calif.) according to the manufacturer's protocol with minor modifications. Briefly, purified STAT3 protein was incubated with Biotin-labeled TET1-CPG probe (hot probe) and/or cold probe, and then protein/DNA complexes were separated on a non-denaturing polyacrylamide gel. Bands were detected using Streptavidin-HRP conjugate and a chemiluminescent substrate. The sequences of the TET1-CPG probe are: Forward: 5′ Biotin-[…]-3′ (SEQ ID NO: 11); Reverse: 5′ Biotin-[…]-3′ (SEQ ID NO: 12).
In general terms: In EMSA bound probe runs differently from free probe, usually more slowly.

Data set [2] concerns 5hmC peak enrichment in the whole genome. Put plainly: Genome-wide 5hmC-seq in ML-2 AML cells. The data set is classed as cell-based, human. The method, then:
FIG. 12. […] 5hmC peak counts at different IDR cutoffs were shown. (b) Read density across 5hmC enriched regions. A unified catalog of 5hmC enriched regions was generated. Shown are heatmaps rank-ordered by reads per kilobase of exon model per million mapped reads (RPKM) of 5hmC-Seal samples minus that of the input samples. (c) Read density across all RefSeq genes. Shown are heatmaps of 5hmC read density changes across all RefSeq gene loci and 5 kb flanking regions (minus input values).
100 ng genomic DNA extracted from ML-2 cell were fragmented in 50 jiL Tagmentation buffer at 55° C. Fragmented DNA was purified by Zymo DNA clean&concentrator Kit (Zymo Research, Tustin, Calif.). Then, the selective 5hmC chemical labeling was performed in 25 jiL glucosylation buffer (50 mM HEPES buffer pH 8.0, 25 mM MgCl2) containing above fragmented DNA, 100 μM N3-UDP-Glc, 1 μM β-GT, and incubated at 37° C. for 2 hr. […] The libraries were quantified by a Qubit fluorometer (Life Technologies) and sequenced on an Illumina HiSEQ4000 sequencer with paired-end 50-bp reads.
The gene network was analyzed with Ingenuity Pathway Analysis (Qiagen). […] For 5hmC sequencing analysis, illumina sequencing reads were mapped to UCSC hg19 human reference genome using bowtie program. Only uniquely mapped reads were retained for the following data analysis. […]

A further data set deals with THP-1 cells. In words: MTS cell viability, THP-1. The settings on record: Homo sapiens, 48 hrs, unit inferred. Type of data set: cell-based. The method, then: (§1) In order to identify chemical compounds that may target TET1 signaling, the drug-sensitivity/gene expression database of a total of 20,602 chemical compounds in the NCI-60 collection of cancer cell samples was searched.
(§2) All cell lines were authenticated through STR profiling yearly.
(§3) These experiments were conducted as described previously (Jiang, X., et al., Blockade of miR-150 Maturation by MLL-Fusion/MYC/LIN-28 Is Required for MLL-Associated Leukemia, Cancer Cell 22:524-35 (2012); Li, Z., et al., miR-196b directly targets both HOXA9/MEIS1 oncogenes and FAS tumour suppressor in MLL-rearranged leukaemia, Nat Commun 2:688 (2012)) with ApoLive-Glo Multiplex Assay Kit, or CellTiter 96 AQueous Non-Radioactive Cell Proliferation Assay Kit (Promega, Madison, Wis.).

For the next data set, the system named is THP-1 and KASUMI-1 cells. Put plainly: Combination with daunorubicin in AML cells. The data set is classed as cell-based. The settings on record: 25 nM compound and 100 nM DNR; 48 hours.
The test system of data set [3] is MONOMAC-6, THP-1, KOCL-48 and KASUMI-1 cells. Put plainly: MTS cell viability, four TET1-high AML cell lines together. The data set is classed as cell-based. As to the method: as §1, §2, §3
The subject of a further data set is KOCL-48 cells. In words: MTS cell viability, KOCL-48. The data set is classed as cell-based. The note with it: 48 hrs, unit inferred. The method, then: as §1, §2, §3
Another data set can be described thus: in vivo. Also noted: species or system C57BL/6 mice. The note with it: C57BL/6, mouse. The text has this:
FIG. 17. […] Error bar indicates SD of triplicate experiments.

Chain of STAT3 and the TET1 CpG island (P40763 whole entry, species assumed): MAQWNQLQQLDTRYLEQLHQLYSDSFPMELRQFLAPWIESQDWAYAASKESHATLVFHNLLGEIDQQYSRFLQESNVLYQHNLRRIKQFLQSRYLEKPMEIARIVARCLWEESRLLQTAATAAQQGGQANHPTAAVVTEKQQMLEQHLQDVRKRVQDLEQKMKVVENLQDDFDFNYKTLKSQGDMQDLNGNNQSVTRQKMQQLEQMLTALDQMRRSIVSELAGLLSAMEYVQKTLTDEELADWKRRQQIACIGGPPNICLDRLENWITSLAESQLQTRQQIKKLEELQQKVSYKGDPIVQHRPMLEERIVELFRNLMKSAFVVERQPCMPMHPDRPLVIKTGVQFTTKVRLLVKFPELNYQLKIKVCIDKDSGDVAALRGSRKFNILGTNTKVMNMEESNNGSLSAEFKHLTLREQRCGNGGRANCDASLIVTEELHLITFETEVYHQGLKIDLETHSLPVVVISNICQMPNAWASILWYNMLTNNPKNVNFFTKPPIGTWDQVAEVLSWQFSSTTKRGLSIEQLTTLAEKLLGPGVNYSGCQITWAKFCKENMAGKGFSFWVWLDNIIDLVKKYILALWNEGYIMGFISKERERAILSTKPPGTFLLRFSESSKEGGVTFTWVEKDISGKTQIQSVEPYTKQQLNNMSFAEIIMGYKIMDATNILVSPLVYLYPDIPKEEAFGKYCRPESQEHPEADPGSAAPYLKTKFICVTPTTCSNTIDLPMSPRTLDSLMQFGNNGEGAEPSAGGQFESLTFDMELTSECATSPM

One may read the IC50 as the midpoint of a concentration-inhibition curve. Read a low IC50 as greater potency. For the compound `COc1cc(C(c2cc3c(cc2O)OCO3)N2CCCC2)cc(OC)c1OC` (stereo not shown) [NSC-370284, 6-(1-Pyrrolidinyl(3,4,5-trimethoxyphenyl)methyl)-1,3-benzodioxol-5-ol], the “association between STAT3 and the TET1 CpG island” value in data set [1] is reported as “almost be completely blocked”. Moreover, the “reduction of 5hmC peak enrichment in the whole genome” value in data set [2] is reported as “around 75%”. The IC50 with THP-1 cells was 0.356 nM; in data set [3] (average over the cell lines, unit inferred), 9.75 nM; in the data set with KOCL-48 cells it was 38.2 nM. For the same compound, the “combined effect with DNR on inhibiting viability” value in the data set on THP-1 and KASUMI-1 cells is listed as “works synergistically”. Besides, the “inhibition of cell viability of all four TET1-high AML cell lines” value in data set [3] (0, 50, 200, 500 nM, MTS 48 hours, among top 20 candidates) is “most significant effects in inhibiting cell viability”. Also, in data set [3] (25 nM, 24 hours, MONOMAC-6, THP-1 and KOCL-48 cells), the “cell viability at low dose, short term” value is reported as “very minor decrease”.
Usually half-life stands for how long it takes for the measured level to halve. A low value points to rapid decline. As a reminder, the AUC(0-inf) is the area under the concentration-time curve extrapolated to infinity. A lower AUC(0-inf) goes with less exposure. In general, MRT refers to the average time that molecules of a dose stay in the body. `CC(C)(C)c1cc(C(c2cc3c(cc2O)OCO3)N2CCOCC2)cc(C(C)(C)C)c1O` (stereo not shown) [UC-514321, 6-{[4-Hydroxy-3,5-bis(2-methyl-2-propanyl)phenyl](4-morpholinyl)methyl}-1,3-benzodioxol-5-ol]: the half-life in the data set “in vivo” was 11 h. In addition, in the data set “in vivo” (ip, 15 mg/kg), the AUC(0-inf) turned out to be 29400 ± 2750 ng·h/mL, the Clearance was 22.7 ± 1.3 mL/min/kg, the MRT is 16.1 ± 1.79 h and the “Volume of Distribution” value turned out to be 21.66 ± 1.74 L/kg. In the data set “in vivo” (ip, 15 mg/kg), this compound showed a half-life of 11 ± 2.51 h. For the same compound, in data set [2], the “reduction of 5hmC peak enrichment in the whole genome” value is “around 75%”. The “combined effect with DNR on inhibiting viability” value in the data set on THP-1 and KASUMI-1 cells is “works synergistically”.
